This note sets out measurements from PMC9436958, “The synthesis of novel thioderivative chalcones and their influence on NF-κB, STAT3 and NRF2 signaling pathways in colorectal cancer cells” (Scientific Reports, 2022).

SMILES strings stand for the structures.

Common to all, as to assay type: cell-based
Assay [1] concerns IKKα/β. As to the kind of experiment: Western blot, IKKα/β protein in cytosolic fraction. The settings on record: HCT116 cells; 4 at 1 μM. As to the method: (§1) Cytosolic and nuclear extracts were prepared using a Nuclear/Cytosol Fractionation Kit (BioVision Research, USA). Cytosolic extracts (for NF-κBp65, NF-κBp50, COX-2, iNOS, STAT3, c-Myc, Bcl-xl, Nrf2, SOD, GSTP, EGFR, Akt, p-Akt, Keap1, IKKα/β and β-actin) or nuclear extracts (for NF-κBp65, NF-κBp50, STAT3, p-STAT3, Nrf2, p-Nrf2 and lamin) were separated on 7.5%, 10% or 12% SDS–PAGE slab gels. Then, the proteins were transferred to a nitrocellulose Immobilon-P membrane. After blocking for 2 h with 10% skimmed milk, proteins were incubated with primary antibodies against NF-κBp65, NF-κBp50, COX-2, iNOS, STAT3, p-STAT3, c-Myc, Bcl-xl, Nrf2, p-Nrf2, SOD, GSTP, EGFR, Akt, p-Akt, Keap1, IKKα/β, β-actin, and lamin. Alkaline phosphatase (AP)-labeled anti-rabbit IgG, anti-goat IgG, and anti-mouse IgG secondary antibodies (Bio-Rad Laboratories, USA), as well as horseradish peroxidase (HRP)-conjugated anti-mouse IgG (Boster Bio, USA) secondary antibodies were used in the staining reaction. Bands were visualized by the AP Conjugate Substrate Kit NBT/BCIP or the chemiluminescent HRP substrate of the Clarity ECL Kit (Bio–Rad Laboratories, USA). The amount of immunoreactive product in each lane was determined using a ChemiDoc Imaging System (Bio–Rad Laboratories, USA). Values were calculated as relative absorbance units (RQ) per mg of protein and expressed as a percentage of the control.

Assay [2] relates to NF-κB p65. As to the kind of experiment: Western blot, NF-κB p65 protein level. Particulars: 4 at 1 μM, vs control. The method, then: as §1
Assay [3] has as its system COX-2. As to the kind of experiment: COX-2 expression (qRT-PCR mRNA, Western blot protein). The settings on record: 4 at 1 μM. The method, then:
as §1
(§2) Total RNA from cells was isolated with the GeneMatrix Universal DNA/RNA/Protein Purification Kit (EurX, Poland). For the qRT-PCR analyses, the Maxima SYBR Green I/ROX qPCR Master Mix (2×) (Thermo Fisher Scientific, USA) and the thermal cycler LightCycler (Roche, Germany) were used. The protocol started with 5 min of enzyme activation at 95 °C, followed by 40–50 cycles at 95 °C for 15 s, 56 °C for 20 s, 72 °C for 40 s, and final elongation at 72 °C for 5 min. Melting curve analysis was used for amplicon verification. The expression levels of TATA-box-binding protein (TBP) and porphobilinogen deaminase (PBGD) were used to normalize the data. The Pfaffl comparative method was used to calculate fold change. Primers were designed using Beacon Designer software (the sequences of primers used to analyze genes are listed in Table 2 of the supplementary materials).

In assay [4] the test system is DLD-1 cells. Kind of assay: Wound healing assay (cell migration). The settings on record: 24 h, 4 at standard concentration (1 μM), BAY 11-7082 5 µM. As to the method: Cell migration was assessed by the wound healing assay. DLD-1 cells were seeded into 24-well plates (5 × 10^5 cells per well) and were grown overnight to reach confluency. A scratch was performed using a 10 μl tip, wells were rinsed twice with PBS buffer to remove detached cells, and fresh medium with reduced FBS concentration (0.5%) containing the tested compounds was added. Subsequently, representative microscopic photographs of scratch areas were taken by JuLI FL microscope (NanoEntek, South Korea) direct after the addition of compounds and after 24 h. Area covered by cells (%) was assessed using JuLI FL software and the difference in the coverage of the growth area by DLD-1 cells between 0 and 24 h time points was calculated for each well. The experiment was repeated three times. The relative effect of the tested compounds on cell migration was calculated by comparing the difference in cell coverage area between compound-treated cells and DMSO-vehicle control (tested compound [area 24 h − area 0 h] / DMSO-vehicle control [area 24 h − area 0 h]).

Assay [5] has as its system STAT3. As to the kind of experiment: Western blot, STAT3 protein level. The settings on record: 4 at 1 μM. The method, then:
as §1

For assay [6], the system named is p-Nrf2. Kind of assay: Western blot, p-Nrf2 protein in nuclear fraction. Particulars: HCT116 line; 5 μM. The method, then:
as §1

Assay [7] deals with NF-κB p65. Kind of assay: qRT-PCR, NF-κB p65 mRNA. Particulars: DLD-1 cells; 5 μM. As to the method:
as §2

The test system of assay [8] is Nrf2. As to the kind of experiment: qRT-PCR, Nrf2 mRNA. The settings on record: 5 at 5 μM. As to the method: as §2
Assay [9] relates to SOD. As to the kind of experiment: SOD expression (qRT-PCR mRNA, Western blot protein). The settings on record: HCT116 cells; 5 μM. The method, then: as §1
as §2, with “Primers were designed using Beacon Designer software (the sequences of primers used to analyze genes are listed in Table 2 of the supplementary materials).” left out

For assay [10], the system named is GSTP. As to the kind of experiment: GSTP expression (qRT-PCR mRNA, Western blot protein). The settings on record: DLD-1 cells; 5 at 5 μM. As to the method:
as §1, with “control. […]” for “control.”

For assay [11], the system named is DLD-1 cells. As to the kind of experiment: Cell cycle distribution, PI staining, flow cytometry, DLD-1. The settings on record: 48 h, BAY 11-7082 5 µM, 5 in higher (doubled) concentration. As to the method:
The analysis of the cell cycle distribution was performed by propidium iodide (PI) staining. The addition of RNase A improved the specificity of PI binding to DNA. The Muse Cell Cycle Kit (Luminex, USA) and flow cytometric detection were performed with the Muse Cell Analyzer (Merck, Germany), according to the manufacturer’s protocol. Briefly, cells were seeded (2 × 10^5 cells per well) in 6-well plates and on the following day the analyzed compounds were added. Topotecan (Sigma-Aldrich, USA) was used as a positive control of cell cycle arrest. After 48 h cells were collected by trypsinization, fixed in cold 70% ethanol and stored at –20 °C. Then, fixed cells were collected and stained with PI, subjected to 30 min incubation at room temperature in the dark and analyzed by flow cytometry. Three independent experiments were performed. Data were analyzed by Muse 1.5 Analysis Software (Merck, Germany).

`COc1cc(C(=O)/C=C/c2cccc(SC)c2)cc(Br)c1OC` [chalcone 4]: the “IKKα/β, cytosolic fraction” value in assay [1] is given as “inactivation”. The “decrease of p65 level in the nuclear fraction” value was found to be 22% in [2] (DLD-1 cells) and 26% in assay [2] (HCT116 cells). For the same molecule, the COX-2 protein level entry in [3] (DLD-1 cells, cytosolic fraction) is on record as “reduced COX-2 protein levels”. For the same molecule, the COX-2 transcription entry in assay [3] (DLD-1 cells, 3, 6 at 5 μM) is listed as “statistically significant reduction”. Besides, the “COX-2 expression, protein level” value in assay [3] (HCT116 cells, 2 at 5 μM) was “reduction of COX-2 expression”. The “COX-2 expression, transcript level” value in assay [3] (HCT116 cells, 2 at 5 μM) is reported as “reduction of COX-2 expression”. Moreover, in assay [4], the “reduction of cell migration rate (wound healing) vs DMSO-treated cells” value is “approximately 15%”. For the same molecule, the “decrease in the nuclear level of STAT3 protein” value in [5] (DLD-1 cells, 2 at 5 μM) turned out to be 21%; in assay [5] (HCT116 cells), 22%.

On to `COc1cc(/C=C/C(=O)c2cc(Br)c(SC)c(OC)c2)ccc1SC` [chalcone 5], for which the “increase in the nuclear level of p-Nrf2” value in assay [6] was determined as 85%. Moreover, the “inhibitory effect on p65 subunit transcription” value in assay [7] is listed as “most potent inhibitory effect”. Also, the figures for the “increase in Nrf2 transcription” value in assay [8] (DLD-1 line) and in assay [8] (HCT116 line) were 77% and 45%, respectively. Also, in [9], the “levels of SOD mRNA and protein” value was “increased levels of SOD mRNA and protein”. Further, the “GSTP expression and protein levels” value in [10] is “significantly increased GSTP expression and protein levels”. The “cell cycle distribution (in words)” value in [11] is recorded as “slightly enriching S phase”.
